Here are results for one compound from ChEMBL document CHEMBL2086309, “Discovery of liver selective non-steroidal glucocorticoid receptor antagonist as novel antidiabetic agents” (Bioorg Med Chem Lett, 2012).

SMILES strings stand for the structures.

In data set [1] the test system is Mus musculus. Description: Antidiabetic activity in ob/ob mouse assessed as Hb1Ac level at 20 mg/kg, po administered BID for 28 days measured 16 hrs post-last dose (reference value: 9.3+/-0.4%). The data set is classed as functional.
Data set [2] deals with Mus musculus. Description: Hepatotoxicity in ob/ob mouse assessed as AST level at 10 mg/kg, po administered BID for 28 days measured st 16 hrs post-last dose (reference value: 332.2+/-39.1 U/L). The data set is classed as toxicity, organism-based. On the set-up: dose 10 mg/kg, route oral. Conditions: in vivo.
For a further data set, the target named is T1, Glucocorticoid receptor (Rattus norvegicus, UniProt P06536).
T1 sequence (P06536 whole entry): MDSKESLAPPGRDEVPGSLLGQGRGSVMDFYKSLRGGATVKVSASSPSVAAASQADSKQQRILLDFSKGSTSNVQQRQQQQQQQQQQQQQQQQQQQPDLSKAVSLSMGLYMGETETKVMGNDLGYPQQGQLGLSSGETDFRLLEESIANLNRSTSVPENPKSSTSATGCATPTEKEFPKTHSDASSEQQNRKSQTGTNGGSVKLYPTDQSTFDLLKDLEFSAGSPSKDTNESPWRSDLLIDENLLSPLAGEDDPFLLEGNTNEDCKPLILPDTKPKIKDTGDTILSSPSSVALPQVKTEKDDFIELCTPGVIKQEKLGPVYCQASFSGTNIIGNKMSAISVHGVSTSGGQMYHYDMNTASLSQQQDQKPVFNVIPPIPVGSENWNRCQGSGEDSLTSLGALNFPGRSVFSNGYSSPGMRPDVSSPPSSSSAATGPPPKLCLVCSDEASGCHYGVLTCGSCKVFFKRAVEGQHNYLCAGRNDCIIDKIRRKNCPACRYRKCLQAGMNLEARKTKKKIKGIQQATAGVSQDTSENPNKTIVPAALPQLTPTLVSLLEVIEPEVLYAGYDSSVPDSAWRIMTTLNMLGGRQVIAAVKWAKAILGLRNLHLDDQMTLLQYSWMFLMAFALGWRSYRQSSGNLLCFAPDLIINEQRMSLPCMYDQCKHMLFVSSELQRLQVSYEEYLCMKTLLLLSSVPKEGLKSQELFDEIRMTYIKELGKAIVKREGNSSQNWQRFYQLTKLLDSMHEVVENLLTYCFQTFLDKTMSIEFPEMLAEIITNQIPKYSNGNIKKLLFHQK
Description: Antagonist activity at glucocorticoid receptor in rat hepatocytes assessed as inhibition of dexamethasone-induced […] expression incubated for 30 mins prior to dexamethasone-induction measured after 4 hrs by reporter gene assay. The format is functional, cell-based, Hepatocyte.

Data set [3] deals with Mus musculus. Description: Toxicity in ob/ob mouse assessed as change in body weight at 20 mg/kg, po administered BID for 28 days (reference value: 11.7+/-1.1 g). The data set is classed as organism-based. On the set-up: dose 20 mg/kg, route oral. Conditions: in vivo, 672 h.
For data set [4], the system named is Rattus norvegicus. Put plainly: Activation of hyphalamic-pituitary-adrenal axis in Sprague-Dawley rat assessed as change in ACTH level at 100 mg/kg, po administered as single dose measured at 2 hrs by ELISA relative to vehicle-treated control. The format is organism-based. The arrangement: dose 100 mg/kg, route oral. Conditions: in vivo.
The nature of data set [5]: Cmax in Sprague-Dawley rat at 20 mg/kg, po administered as single dose. The data set is classed as ADME, organism-based. On the set-up: dose 20 mg/kg, route oral. Particulars: in vivo.
Data set [6] deals with Rattus norvegicus. Description: Activation of hyphalamic-pituitary-adrenal axis in Sprague-Dawley rat assessed as change in corticosterone level at 100 mg/kg, po administered as single dose measured at 2 hrs relative to vehicle-treated control. The format is organism-based. The arrangement: dose 100 mg/kg, route oral. Conditions: in vivo.
For data set [7], the system named is Mus musculus. Put plainly: Antihyperlipidemic activity in ob/ob mouse assessed as triglyceride level at 20 mg/kg, po administered BID for 28 days measured 16 hrs post-last dose (reference value: 292.5+/-17.5 mg/dL). The format is functional.
Data set [8] deals with Mus musculus. Put plainly: Antidiabetic activity in ob/ob mouse assessed as insulin level at 10 mg/kg, po administered BID for 28 days measured 16 hrs post-last dose by ELISA (reference value: 13.6+/-2.3 ng/mL). The data set is classed as functional.
A short description of data set [9]: AUC in Sprague-Dawley rat at 20 mg/kg, iv administered as single dose. The format is ADME, organism-based. Particulars: plasma. On the set-up: dose 20 mg/kg, route intravenous.
The test system of data set [10] is Mus musculus. Description: Toxicity in ob/ob mouse assessed as change in body weight at 10 mg/kg, po administered BID for 28 days (reference value: 11.7+/-1.1 g). The format is organism-based. On the set-up: dose 10 mg/kg, route oral. Conditions: in vivo, 672 h.
For data set [11], the system named is Mus musculus. Description: Antihyperlipidemic activity in ob/ob mouse assessed as cholesterol level at 20 mg/kg, po administered BID for 28 days measured 16 hrs post-last dose (reference value: 331.2+/-17.9 mg/dL). The data set is classed as functional.
In data set [12] the test system is Mus musculus. Put plainly: Antidiabetic activity in ob/ob mouse assessed as decrease in post-prandial blood glucose level at 20 mg/kg, po administered BID for 28 days measured 16 hrs post-last dose relative to vehicle-treated control. The data set is classed as functional. On the set-up: scale not given: the % may be the effect or the level left.
Data set [13] relates to Mus musculus. Put plainly: Antihyperlipidemic activity in ob/ob mouse assessed as free fatty acid level at 20 mg/kg, po administered BID for 28 days measured 16 hrs post-last dose (reference value: 1.96+/-0.09 mEq/L). The format is functional.
A short description of data set [14]: Drug uptake in Sprague-Dawley rat liver at 20 mg/kg, po administered as single dose measured at 0.5 hrs. The format is ADME, organism-based. On the set-up: dose 20 mg/kg, route oral. Conditions: read-out: Drug uptake.
For data set [15], the system named is Mus musculus. Put plainly: Antidiabetic activity in po dosed ob/ob mouse assessed as decrease in post-prandial blood glucose level administered BID for 28 days measured 16 hrs post-last dose. The data set is classed as functional, organism-based.
For data set [16], the system named is Mus musculus. Description: Antidiabetic activity in ob/ob mouse assessed as decrease in post-prandial blood glucose level at 10 mg/kg, po administered BID for 28 days measured 16 hrs post-last dose relative to vehicle-treated control. On the set-up: scale not given: the % may be the effect or the level left. The format is functional.
Data set [17] deals with Mus musculus. Description: Hepatotoxicity in ob/ob mouse assessed as ALT level at 20 mg/kg, po administered BID for 28 days measured st 16 hrs post-last dose (reference value: 259.4+/-18.6 U/L). The format is toxicity, organism-based. On the set-up: dose 20 mg/kg, route oral. Particulars: in vivo.
Data set [18] in a line: Tmax in Sprague-Dawley rat at 20 mg/kg, po administered as single dose. The format is ADME, organism-based. The arrangement: dose 20 mg/kg, route oral. Particulars: in vivo.
The test system of data set [19] is Mus musculus. Put plainly: Antihyperlipidemic activity in ob/ob mouse assessed as triglyceride level at 10 mg/kg, po administered BID for 28 days measured 16 hrs post-last dose (reference value: 292.5+/-17.5 mg/dL). The format is functional.
Data set [20] has as its system Mus musculus. Description: Hepatotoxicity in ob/ob mouse assessed as ALT level at 10 mg/kg, po administered BID for 28 days measured st 16 hrs post-last dose (reference value: 259.4+/-18.6 U/L). Particulars: in vivo. On the set-up: dose 10 mg/kg, route oral. The data set is classed as toxicity, organism-based.

For `O=C(O)Cc1cc(Br)c(N(Cc2ccc(Oc3ccc(F)cc3F)cc2)Cc2cc(F)cc(F)c2)c(Br)c1`, the Activity with Mus musculus [1] was 6%; in the data set on Mus musculus [2] it was 345.3 U/L; with Mus musculus [3] it was 10.9 g; in the data set on Rattus norvegicus [4], “Non-toxic”; in the data set with Rattus norvegicus [6], “Non-toxic”; in the data set on Mus musculus [7] it was 173.5 mg/dL. Further, the Activity is 14.1 ng/mL with Mus musculus [8]; 11.9 g with Mus musculus [10]; 219.5 mg/dL with Mus musculus [11]; 42% with Mus musculus [12]; 1.17 mEq/L with Mus musculus [13]; “Dose-dependent effect” in the data set on Mus musculus [15]. The Activity with Mus musculus [16] stood at 32%; with Mus musculus [17], 247.5 U/L; in the data set on Mus musculus [19], 214.3 mg/dL; with Mus musculus [20], 261 U/L. Besides, the IC50 on Glucocorticoid receptor came out at 900 nM. In data set [5], the highest level (Cmax) was 880 ng/mL. This compound returned an area under the curve (AUC) in [9] of 13000 ng·h/mL. Moreover, the concentration at 0.5 h in [14] amounted to 21800 ng/mL. For the same compound, the time to peak (Tmax) in data set [18] turned out to be 30.6 min.
